Tested on: Maus
Test: Tail Suspension Test in the mouse
Type: in vivo
Description: Der "Tail Suspension Test" detektiert antidepressive und anxiolytische Aktivität und folgt der Methode von Porsolt et al. (Porsolt R.D., Bertin A., Jalfre M., Behaviourial despair in mice: a primary screening test for antidepressants. Arch. Int. Pharmacodyn. Ther., 229, 327-336, 1977) und Stéru et al. (Stéru L., .Chermat R., Thierry B, Simon P. The Tail Suspension Test: a new method for screening antidepressants in mice. Psychopharmacology, 85, 367-370, 1985). Nagetiere, die man am Schwanz herabhängen läßt, werden schnell immobil. Antidepressiva verringern die Dauer der Immobilität, während Tranquilantien die Dauer der Immobilität verlängern. Das Verhalten der Tiere wurde über 6 Minuten beobachtet, vorzugsweise mit einem computerisierten Gerät (Itemac-TST) entwickelt von Stéru et al. (1985) (s.o.). Mehrere Mäuse wurden parallel untersucht und die Immobilitätsdauer bestimmt. Dieser Parameter ist analog zu dem im "behavioral despair"-Test (Stéru L., Chermat R., Thierry B., Mico J.A., Lenègre A., Stéru M., Simon P. Porsolt R.D., The automated Tail Suspension Test: a computerized device which differentiates psychotropic drugs. Prog. Neuropsychopharmacol. Exp. Psychiatry, 11, 659-671, 1987) verwendeten. 10-20 Mäuse wurden pro Gruppe untersucht. […]. In diesem Verhaltensmodell führen Antidepressiva wie auch in anderen Verhaltensmodellen zu einer Verkürzung der Immobilitätsphase, während Opioide wie Morphin die Immobilitätsphase verlängern. Beim Vorhandensein beider Wirkkomponenten überlagern sich beide Effekte, so daß nur noch eine geringe Motilitätsveränderung resultiert. Das wurde dadurch aufgehoben, daß die Opiatkomponente durch Vorbehandlung mit Naloxon weggeblockt wurde. Nach der Naloxonvorbehandlung trat die stimulierende Wirkung von (1R,2R)-3-(2-Dimethylaminomethyl-cyclohexyl)-phenol, die ohne Vorbehandlung nur gering war, deutlich in Erscheinung. Darum ist die Substanz, insbesondere in Kombination mit einer Schmerztherapie sehr geeignet. Die Ergebnisse dieser Untersuchungen zusammen mit Referenzsubstanzen sind in der Tabelle 2 zusammengefaßt. Tabelle 2: Wirkung von (1R,2R)-3-(2-Dimethylaminomethyl-cyclohexyl)-phenol, Imipramin und Morphin in "Tail Suspension" Test an der Maus (10 - 20 Tiere/Gruppe)

[1] = 31,6 mg/kg i.p., 30 min before test

SMILES	Imobilitätsdauer % Änderung gegenüber der Lösungsmittelkontrolle (1,0 mg/kg i.v. alone) [%]	Imobilitätsdauer % Änderung gegenüber der Lösungsmittelkontrolle (4,64 mg/kg i.p., 30 min before test)	Imobilitätsdauer % Änderung gegenüber der Lösungsmittelkontrolle (10,0 mg/kg i.p., 30 min before test)	Imobilitätsdauer % Änderung gegenüber der Lösungsmittelkontrolle (21,5 mg/kg i.p. + 1,0 mg/kg i.v. Naloxon (pretreatment)) [%]	Imobilitätsdauer % Änderung gegenüber der Lösungsmittelkontrolle (21,5 mg/kg i.p., 30 min before test)	Imobilitätsdauer % Änderung gegenüber der Lösungsmittelkontrolle (31,6 mg/kg i.p. + 1,0 mg/kg i.v. Naloxon (pretreatment)) [%]	Imobilitätsdauer % Änderung gegenüber der Lösungsmittelkontrolle [1] [%]
C=CCN1CC[C@]23c4c5ccc(O)c4O[C@H]2C(=O)CC[C@@]3(O)[C@H]1C5 [Naloxon, reference compound]	-15						
CN(C)C[C@@H]1CCCC[C@H]1c1cccc(O)c1 [(1R,2R)-3-(2-Dimethylaminomethyl-cyclohexyl)-phenol]		+6%	+12%	-90	+9%	-85	-13
CN(C)CCCN1c2ccccc2CCc2ccccc21 [Imipramin, reference compound]							-61

Reference: patent EP1530462B1, “1-PHENYL-2-DIMETHYLAMINOMETHYL CYCLOHEXANE COMPOUNDS USED FOR THE THERAPY OF DEPRESSIVE SYMPTOMS, PAIN, AND INCONTINENCE” (priority 2002, dated 2004)
